The values below come from US9381200B2, “Nitrogen containing compounds” (WOCKHARDT LIMITED, priority 2011, dated 2016).

Common to all, as to type: cell-based
Assay [1] deals with E. coli NCTC 13351. The experiment in a line: Antibacterial activity (MIC), agar dilution per CLSI. The conditions noted are these: Escherichia coli, NCTC13351, Table 3, E. coli NCTC 13351 expressing ESBL, 16-20 hours, 35±2° C., read-out: MIC. In short, it runs like this:
(§1)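 Agar dilution MIC per CLSI: overnight cultures diluted and inoculated onto agar containing doubling dilutions of compound. Growth/no growth read after 16-20 h at 35±2° C in ambient air. Strains express ESBL.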
(In general: In agar dilution the substance is mixed into plates at graded concentrations.)

The subject of assay [2] is E. coli 7 MP. Described as above. The following applies: Escherichia coli, Table 3, E. coli 7 MP expressing ESBL, read-out: MIC. In short, it runs like this:
as §1

The subject of assay [3] is E. coli M 50. The assay is described as above. The following applies: Escherichia coli, read-out: MIC. In short, it runs like this: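 MIC values (mcg/ml) are the lowest compound level on agar showing no growth. Each strain, taken from an overnight culture and diluted, is inoculated onto media carrying doubling dilutions of compound, then incubated for 16-20 hours at 35±2° C. without added CO2.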

Assay [4] deals with K penumoniae H 521. The assay is described as follows: Antibacterial activity (MIC) against MDR Gram negative strains. The conditions noted are these: Table 4; K penumoniae H 521, KPC ESBL, MDR; read-out: MIC. The method, then: (§2) The biological activity of representative compounds according to the invention against various bacterial strains was investigated. In a typical study, overnight grown bacterial cultures were diluted appropriately and inoculated on the agar media containing doubling dilutions of the test compounds. Observation for growth or no growth was performed after 16-20 hours of incubation at 35±2° C. in ambient air. The overall procedure was performed as per Clinical and Laboratory Standards Institute (CLSI) recommendations (Clinical and Laboratory Standards Institute (CLSI), Performance Standards for Antimicrobial Susceptibility Testing, 20th Informational Supplement, M 100-S20, Volume 30, No. 1, 2010).
(§3) The activities are expressed as MICs (mcg/ml).

For assay [5], the system named is K penumoniae H 523. The description is as above. The following applies: Table 4; K penumoniae H 523, KPC ESBL, MDR; read-out: MIC. The method, then:
as §2, §3

The test system of assay [6] is E. Coli M 3. Described as above. The following applies: Escherichia coli; Table 5; E. Coli M 3, Class B ESBL, MDR; read-out: MIC. The method, then: as §2, §3
Assay [7] deals with E. Coli H 484. The assay is described as above. The conditions noted are these: Escherichia coli; Table 4; E. Coli H 484, Class C ESBL, MDR; read-out: MIC. The method, then: as §2, §3
For assay [8], the system named is K. penumoniae S 48. Described as above. The following applies: Table 5; K. penumoniae S 48, Class B ESBL, MDR; read-out: MIC. The method, then: as §2, §3
In assay [9] the test system is E. Coli B 89. The assay is described as above. The conditions noted are these: Escherichia coli; Table 4; E. Coli B 89, Class C ESBL, MDR; read-out: MIC. The method, then: as §2, §3
Assay [10] deals with E. Coli W 13352. Described as above. The following applies: Escherichia coli; Table 4; E. Coli W 13352, Class A ESBL, MDR; read-out: MIC. The method, then:
as §2, §3

Assay [11] concerns E. Coli W 13351. Described as above. The conditions noted are these: Escherichia coli; Table 4; E. Coli W 13351, Class A ESBL, MDR; read-out: MIC. The method, then:
as §2, §3

The subject of assay [12] is P. aeruginosa Ps 32. The description is as above. The following applies: Pseudomonas aeruginosa, PS32; Table 5; P. aeruginosa Ps 32; read-out: MIC. The method, then:
as §2, §3

For assay [13], the system named is P. aeruginosa Ps 21. Described as above. The conditions noted are these: Pseudomonas aeruginosa, PS21; Table 5; P. aeruginosa Ps 21; read-out: MIC. The method, then:
as §2, §3

Assay [14] relates to K penumoniae H 525. Described as above. The following applies: Table 4; K penumoniae H 525, KPC ESBL, MDR; read-out: MIC. The method, then:
as §2, §3

For assay [15], the system named is E. Coli W 13353. Described as above. The following applies: Escherichia coli; Table 4; E. Coli W 13353, Class A ESBL, MDR; read-out: MIC. The method, then: as §2, §3
Assay [16] has as its system P. aeruginosa ATCC 27853. Described as above. The following applies: Pseudomonas aeruginosa, ATCC27853; Table 5; P. aeruginosa ATCC 27853; read-out: MIC. The method, then: as §2, §3
Assay [17] has as its system E. Coli M 44. Described as above. The conditions noted are these: Escherichia coli; Table 5; E. Coli M 44, Class B ESBL, MDR; read-out: MIC. The method, then: as §2, §3
[18] abbreviates: M50, Table 3, E. coli M 50 expressing ESBL, agar dilution.
The mark [19] stands for this setting: M50, Table 4, E. Coli M 50, Class C ESBL, MDR.

Structures are written as SMILES. Converted amounts (≈) assume the structure as drawn. Like-named read-outs stand apart in the source and are kept apart here. Bounds are passed on as bounds.

One may read the MIC as the least concentration at which growth counts as inhibited. In the case of `O=C(NNC(=O)[C@H]1CC[C@@H]2CN1C(=O)N2OS(=O)(=O)O)[C@@H]1C[C@H](F)CN1` (mixture of isomers) [Example 11, trans-sulfuric acid mono-[2-(N′-[(2S,4S)-4-fluoro-pyrrolidin-2-carbonyl]-hydrazinocarbonyl)-7-oxo-1,6-diaza-bicyclo[3.2.1]oct-6-yl]ester], the minimum inhibitory concentration (MIC) worked out at 2 µg/mL in assay [1]; 4 µg/mL in assay [2]; 1 µg/mL in [3] (setting [18]); 2 µg/mL in [3] (setting [19]); 4 µg/mL in assay [4]; 2 µg/mL in assay [5]. Also, the minimum inhibitory concentration (MIC) in assay [6] is 8 µg/mL; in assay [7], 16 µg/mL; in assay [8] it was 2 µg/mL; in assay [9], 2 µg/mL; in assay [10] it was 2 µg/mL; in [11], 2 µg/mL. In addition, the MIC in [12] was greater than 32 µg/mL; in assay [13], greater than 32 µg/mL; in assay [14] it was 2 µg/mL; in assay [15], 2 µg/mL; in assay [16], greater than 32 µg/mL; in [17], 1 µg/mL.
As for `O=C(NNC(=O)[C@H]1CCCN1)[C@H]1CC[C@@H]2CN1C(=O)N2OS(=O)(=O)O` (mixture of isomers) [Example 30, trans-sulfuric acid mono-[2-(N′—[(R)-pyrrolidin-2-carbonyl]-hydrazinocarbonyl)-7-oxo-1,6-diaza-bicyclo[3.2.1]oct-6-yl]ester], the MIC stood at 16 µg/mL in assay [1]; 32 µg/mL in assay [2]; 8 µg/mL in [3] (setting [18]); 8 µg/mL in assay [3] (setting [19]); 8 µg/mL in assay [4]; 8 µg/mL in assay [5]. The MIC is 8 µg/mL in assay [6]; 8 µg/mL in assay [7]; greater than 32 µg/mL in assay [8]; 8 µg/mL in assay [9]; 16 µg/mL in assay [10]; 16 µg/mL in [11]. Besides, the minimal inhibitory concentration (MIC) is greater than 32 µg/mL in assay [12]; greater than 32 µg/mL in assay [13]; greater than 32 µg/mL in assay [14]; 8 µg/mL in assay [15]; greater than 32 µg/mL in [16]; 16 µg/mL in [17].
Regarding `O=C(NNC(=O)[C@H]1CC[C@@H]2CN1C(=O)N2OS(=O)(=O)O)C1CNCCN1` (mixture of isomers) [Example 38, trans-sulfuric acid mono-[2-(N′—((RS)-piperazin-2-carbonyl)-hydrazinocarbonyl)-7-oxo-1,6-diaza-bicyclo[3.2.1]oct-6-yl]ester], the MIC worked out at 4 µg/mL (≈ 10.2 µM) in assay [1]; 8 µg/mL (≈ 20.4 µM) in assay [2]; 2 µg/mL (≈ 5.1 µM) in assay [3] (setting [18]); 2 µg/mL (≈ 5.1 µM) in assay [3] (setting [19]); 2 µg/mL (≈ 5.1 µM) in assay [4]; 2 µg/mL (≈ 5.1 µM) in [5]. The MIC in assay [6] was found to be 1 µg/mL (≈ 2.55 µM); in [7] it was 8 µg/mL (≈ 20.4 µM); in assay [8] it was 4 µg/mL (≈ 10.2 µM); in [9], 2 µg/mL (≈ 5.1 µM); in [10], 4 µg/mL (≈ 10.2 µM); in assay [11] it was 4 µg/mL (≈ 10.2 µM). Besides, the MIC in assay [12] was greater than 32 µg/mL; in [13] it was greater than 32 µg/mL; in [14] it was 2 µg/mL (≈ 5.1 µM); in [15], 2 µg/mL (≈ 5.1 µM); in assay [16], greater than 32 µg/mL; in [17], 4 µg/mL (≈ 10.2 µM).
